In ChEMBL document CHEMBL5723035, “Affinity Biochemical Literature for EUbOPEN Chemogenomic Library” (2024):
Blank lines part the entries; values can stand above or below the compound they belong to. Non-standard residues stand in square brackets, D forms with d. Residues, ends and D or L forms follow the SMILES beside them. *: point of attachment. Tyr(3-Cl) = N[C@@H](Cc1ccc(O)c(Cl)c1)C(=O)O; Benzoyl(3,5-Cl2) = O=C(c1cc(Cl)cc(Cl)c1)*; Lys(Et2) = CCN(CC)CCCC[C@H](N)C(=O)O; Gly(cPent) = N[C@H](C(=O)O)C1CCCC1; Cbz = O=C(OCc1ccccc1)*; NH(propargyl) = C#CCN*; CH2F = FC*

Tests used:
Cathepsin S = Cathepsin S (Homo sapiens, UniProt P25774); assay: Affinity Biochemical interaction: (inhibition of enzyme activity in cleaving fluorogenic substrate) EUB0002791a CTSS; assay type: functional; parameters: mode of action Inhibitor, recommended concentration 1 uM
Dipeptidyl peptidase 1 = Dipeptidyl peptidase 1 (Homo sapiens, UniProt P53634); assay: Affinity Biochemical interaction: (No data available) EUB0002789aCl CTSC; parameters: mode of action Inhibitor, recommended concentration 1 uM
[1] = molecular target: Ubiquitin carboxyl-terminal hydrolase 7 (Homo sapiens, UniProt Q93009); assay: Affinity Biochemical interaction: (inhibition of enzyme activity in cleaving fluorogenic ubiquitin-rhodamine substrate) EUB0002755a USP7; assay type: functional; parameters: mode of action Inhibitor, recommended concentration 1 uM
[2] = molecular target: T1, Chromobox protein homolog 2 (Homo sapiens, UniProt Q14781); assay: Affinity Biochemical interaction: (Fluorescence polarisation (fluorescein conjugated)) EUB0002728a CBX2; assay type: functional; parameters: mode of action Inhibitor, recommended concentration 1 uM
[3] = molecular target: T1, Chromobox protein homolog 2; assay: Affinity Biochemical interaction: (thermal shift assay (non-derivatised)) EUB0002728a CBX2; parameters: mode of action Inhibitor, recommended concentration 1 uM
[4] = molecular target: cGMP-specific 3',5'-cyclic phosphodiesterase (Homo sapiens, UniProt O76074); assay: Affinity Biochemical interaction: (inhibition of enzyme activity in cleaving radiolabelled substrate [3H]cGMP) EUB0002742aCl PDE5A; assay type: functional; parameters: mode of action Inhibitor, recommended concentration 1 uM
Menin = Menin (Homo sapiens, UniProt O00255); assay: Affinity Biochemical interaction: (Enzymatic assay) EUB0002767a MEN1; assay type: functional; parameters: mode of action Inhibitor, recommended concentration 1 uM
[5] = molecular target: Poly [ADP-ribose] polymerase 1 (Homo sapiens, UniProt P09874); assay: Affinity Biochemical interaction: (inhibition of enzyme activity) EUB0002763a PARP1; assay type: functional; parameters: mode of action Inhibitor, recommended concentration 1 uM
[6] = molecular target: Poly [ADP-ribose] polymerase 2 (Homo sapiens, UniProt Q9UGN5); assay: Affinity Biochemical interaction: (inhibition of enzyme activity) EUB0002763a PARP2; assay type: functional; parameters: mode of action Inhibitor, recommended concentration 1 uM
[7] = molecular target: T2, Calpain-1 catalytic subunit (Homo sapiens, UniProt P07384); assay: Affinity Biochemical interaction: (inhibition of enzyme activity using a fluorogenic substrate) EUB0002786aAD CAPN1; assay type: functional; parameters: mode of action Inhibitor, recommended concentration 1 uM
[8] = molecular target: T2, Calpain-1 catalytic subunit; assay: Affinity Biochemical interaction: (inhibition of casein degradation, monitored by measuring generation of trichloroacetic acid-soluble peptides) EUB0002786aAD CAPN1; assay type: functional; parameters: mode of action Inhibitor, recommended concentration 1 uM
[9] = molecular target: Calpain-2 catalytic subunit (Homo sapiens, UniProt P17655); assay: Affinity Biochemical interaction: (inhibition of casein degradation, monitored by measuring generation of trichloroacetic acid-soluble peptides) EUB0002786aAD CAPN2; assay type: functional; parameters: mode of action Inhibitor, recommended concentration 1 uM
Caspase-2 = Caspase-2 (Homo sapiens, UniProt P42575); assay: Affinity Biochemical interaction: (enzymatic assay (cleavage of fluorogenic substrate)) EUB0002782a CASP2; assay type: functional; parameters: mode of action Inhibitor, recommended concentration 1 uM
[10] = molecular target: Ubiquitin carboxyl-terminal hydrolase 30 (Homo sapiens, UniProt Q70CQ3)
[11] = molecular target: WD repeat-containing protein 5 (Homo sapiens, UniProt P61964); assay: Affinity Biochemical interaction: (Time-resolved fluorescence energy transfer (TR-FRET) assay to determine the competitive binding affinity (Ki) against the MLL1-derived FITC-peptide probe) EUB0002769a WDR5; assay type: functional; parameters: mode of action Inhibitor, recommended concentration 1 uM
[12] = molecular target: Histone-lysine N-methyltransferase 2A (Homo sapiens, UniProt Q03164); assay: Affinity Biochemical interaction: (H3K4 HMT inhibition assay to measure the effect on MLL1-mediated HMT activity) EUB0002769a MLL; assay type: functional; parameters: mode of action Inhibitor, recommended concentration 1 uM
[13] = molecular target: Ubiquitin carboxyl-terminal hydrolase 1 (Homo sapiens, UniProt O94782); assay: Affinity Biochemical interaction: (Ubiquitin-rhodamine 110 Assay for USP1 activity) EUB0002793a USP1; assay type: functional; parameters: mode of action Inhibitor, recommended concentration 1 uM

T2 sequence (P07384 whole entry): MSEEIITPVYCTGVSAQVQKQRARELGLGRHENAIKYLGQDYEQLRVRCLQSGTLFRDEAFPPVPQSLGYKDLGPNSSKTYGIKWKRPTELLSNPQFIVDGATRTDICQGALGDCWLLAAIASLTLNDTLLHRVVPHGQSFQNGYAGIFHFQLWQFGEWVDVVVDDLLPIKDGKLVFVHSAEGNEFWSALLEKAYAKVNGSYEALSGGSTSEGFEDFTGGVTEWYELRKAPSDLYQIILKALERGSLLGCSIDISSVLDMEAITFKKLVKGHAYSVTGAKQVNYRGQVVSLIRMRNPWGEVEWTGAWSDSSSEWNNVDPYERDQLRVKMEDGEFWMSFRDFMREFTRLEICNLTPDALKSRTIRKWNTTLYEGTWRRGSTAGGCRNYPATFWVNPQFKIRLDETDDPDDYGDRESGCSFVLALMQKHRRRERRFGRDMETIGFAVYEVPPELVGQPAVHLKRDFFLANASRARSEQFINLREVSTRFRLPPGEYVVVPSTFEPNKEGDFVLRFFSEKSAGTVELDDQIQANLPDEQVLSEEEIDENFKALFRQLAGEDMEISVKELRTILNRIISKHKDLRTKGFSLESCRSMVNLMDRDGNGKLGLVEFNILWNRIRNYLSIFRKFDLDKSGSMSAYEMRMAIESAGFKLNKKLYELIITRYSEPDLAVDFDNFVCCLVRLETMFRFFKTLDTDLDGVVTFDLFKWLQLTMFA
T1 sequence (Q14781 whole entry): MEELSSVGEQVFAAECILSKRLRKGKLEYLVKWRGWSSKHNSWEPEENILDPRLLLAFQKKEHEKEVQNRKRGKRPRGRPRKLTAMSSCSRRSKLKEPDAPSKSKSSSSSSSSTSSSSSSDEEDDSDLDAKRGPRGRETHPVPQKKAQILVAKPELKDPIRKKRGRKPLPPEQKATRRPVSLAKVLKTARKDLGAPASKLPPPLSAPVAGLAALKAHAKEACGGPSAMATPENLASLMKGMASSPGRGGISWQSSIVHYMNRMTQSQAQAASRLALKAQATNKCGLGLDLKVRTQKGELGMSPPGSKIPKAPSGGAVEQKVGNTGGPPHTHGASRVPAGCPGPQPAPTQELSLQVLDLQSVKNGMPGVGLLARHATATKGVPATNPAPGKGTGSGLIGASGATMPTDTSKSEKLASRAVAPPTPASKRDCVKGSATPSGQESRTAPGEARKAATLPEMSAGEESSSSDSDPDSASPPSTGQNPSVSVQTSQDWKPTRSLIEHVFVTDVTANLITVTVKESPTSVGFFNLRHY
Cathepsin S, sequence (P25774 whole entry): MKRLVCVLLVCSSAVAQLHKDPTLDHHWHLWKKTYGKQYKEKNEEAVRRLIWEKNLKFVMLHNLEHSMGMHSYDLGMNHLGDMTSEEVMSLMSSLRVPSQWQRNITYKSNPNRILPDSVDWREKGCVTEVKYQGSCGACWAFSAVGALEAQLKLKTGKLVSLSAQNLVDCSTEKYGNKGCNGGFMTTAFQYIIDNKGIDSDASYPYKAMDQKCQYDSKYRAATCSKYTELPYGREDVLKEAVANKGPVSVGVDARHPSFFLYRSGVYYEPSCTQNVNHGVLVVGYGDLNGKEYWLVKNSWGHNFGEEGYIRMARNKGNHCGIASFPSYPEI
Ubiquitin carboxyl-terminal hydrolase 30, sequence (Q70CQ3 whole entry): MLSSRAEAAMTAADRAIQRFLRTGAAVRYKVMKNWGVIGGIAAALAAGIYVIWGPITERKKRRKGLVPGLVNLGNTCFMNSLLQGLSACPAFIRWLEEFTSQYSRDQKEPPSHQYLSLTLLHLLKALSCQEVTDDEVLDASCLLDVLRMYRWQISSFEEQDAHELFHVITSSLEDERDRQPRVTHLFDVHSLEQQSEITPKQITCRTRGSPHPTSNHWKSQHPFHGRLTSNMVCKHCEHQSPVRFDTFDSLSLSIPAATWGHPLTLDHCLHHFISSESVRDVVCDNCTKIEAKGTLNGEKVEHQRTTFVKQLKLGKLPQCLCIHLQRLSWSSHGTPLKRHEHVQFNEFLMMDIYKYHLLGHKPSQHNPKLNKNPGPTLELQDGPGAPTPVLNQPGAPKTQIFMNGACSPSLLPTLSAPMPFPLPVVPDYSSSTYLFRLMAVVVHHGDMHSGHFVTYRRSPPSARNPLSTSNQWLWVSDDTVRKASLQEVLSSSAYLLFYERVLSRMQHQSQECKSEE
Dipeptidyl peptidase 1, sequence (P53634 25-134 limits assumed): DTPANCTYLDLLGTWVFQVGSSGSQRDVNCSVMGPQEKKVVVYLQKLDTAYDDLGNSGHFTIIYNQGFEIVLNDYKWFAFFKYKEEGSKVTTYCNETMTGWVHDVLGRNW
Dipeptidyl peptidase 1, sequence (P53634 231-394 limits assumed): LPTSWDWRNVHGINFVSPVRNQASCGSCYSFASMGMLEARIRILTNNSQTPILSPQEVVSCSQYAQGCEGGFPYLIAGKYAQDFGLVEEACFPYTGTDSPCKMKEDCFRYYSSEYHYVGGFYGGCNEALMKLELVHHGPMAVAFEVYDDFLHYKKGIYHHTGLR
Dipeptidyl peptidase 1, sequence (P53634 395-463 limits assumed): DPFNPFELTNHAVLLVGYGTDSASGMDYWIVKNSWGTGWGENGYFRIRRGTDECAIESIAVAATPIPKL
Calpain-2 catalytic subunit, sequence (P17655 whole entry): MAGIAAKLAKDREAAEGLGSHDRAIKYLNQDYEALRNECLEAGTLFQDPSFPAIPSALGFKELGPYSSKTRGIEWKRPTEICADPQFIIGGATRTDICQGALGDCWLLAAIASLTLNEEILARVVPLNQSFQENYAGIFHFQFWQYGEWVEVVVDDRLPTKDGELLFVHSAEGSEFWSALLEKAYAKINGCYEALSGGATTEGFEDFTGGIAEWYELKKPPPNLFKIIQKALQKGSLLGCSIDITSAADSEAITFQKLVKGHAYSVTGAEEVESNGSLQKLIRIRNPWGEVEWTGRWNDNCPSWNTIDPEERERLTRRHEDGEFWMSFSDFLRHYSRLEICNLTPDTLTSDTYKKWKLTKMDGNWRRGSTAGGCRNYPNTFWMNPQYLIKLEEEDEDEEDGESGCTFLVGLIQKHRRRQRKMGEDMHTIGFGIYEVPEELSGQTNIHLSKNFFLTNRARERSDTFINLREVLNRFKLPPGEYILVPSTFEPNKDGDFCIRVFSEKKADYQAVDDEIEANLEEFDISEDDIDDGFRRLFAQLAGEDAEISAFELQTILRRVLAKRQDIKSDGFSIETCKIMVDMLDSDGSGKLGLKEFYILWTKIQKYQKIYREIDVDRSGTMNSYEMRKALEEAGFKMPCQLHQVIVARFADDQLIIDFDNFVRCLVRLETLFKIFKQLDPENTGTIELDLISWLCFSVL
Ubiquitin carboxyl-terminal hydrolase 7, sequence (Q93009 whole entry): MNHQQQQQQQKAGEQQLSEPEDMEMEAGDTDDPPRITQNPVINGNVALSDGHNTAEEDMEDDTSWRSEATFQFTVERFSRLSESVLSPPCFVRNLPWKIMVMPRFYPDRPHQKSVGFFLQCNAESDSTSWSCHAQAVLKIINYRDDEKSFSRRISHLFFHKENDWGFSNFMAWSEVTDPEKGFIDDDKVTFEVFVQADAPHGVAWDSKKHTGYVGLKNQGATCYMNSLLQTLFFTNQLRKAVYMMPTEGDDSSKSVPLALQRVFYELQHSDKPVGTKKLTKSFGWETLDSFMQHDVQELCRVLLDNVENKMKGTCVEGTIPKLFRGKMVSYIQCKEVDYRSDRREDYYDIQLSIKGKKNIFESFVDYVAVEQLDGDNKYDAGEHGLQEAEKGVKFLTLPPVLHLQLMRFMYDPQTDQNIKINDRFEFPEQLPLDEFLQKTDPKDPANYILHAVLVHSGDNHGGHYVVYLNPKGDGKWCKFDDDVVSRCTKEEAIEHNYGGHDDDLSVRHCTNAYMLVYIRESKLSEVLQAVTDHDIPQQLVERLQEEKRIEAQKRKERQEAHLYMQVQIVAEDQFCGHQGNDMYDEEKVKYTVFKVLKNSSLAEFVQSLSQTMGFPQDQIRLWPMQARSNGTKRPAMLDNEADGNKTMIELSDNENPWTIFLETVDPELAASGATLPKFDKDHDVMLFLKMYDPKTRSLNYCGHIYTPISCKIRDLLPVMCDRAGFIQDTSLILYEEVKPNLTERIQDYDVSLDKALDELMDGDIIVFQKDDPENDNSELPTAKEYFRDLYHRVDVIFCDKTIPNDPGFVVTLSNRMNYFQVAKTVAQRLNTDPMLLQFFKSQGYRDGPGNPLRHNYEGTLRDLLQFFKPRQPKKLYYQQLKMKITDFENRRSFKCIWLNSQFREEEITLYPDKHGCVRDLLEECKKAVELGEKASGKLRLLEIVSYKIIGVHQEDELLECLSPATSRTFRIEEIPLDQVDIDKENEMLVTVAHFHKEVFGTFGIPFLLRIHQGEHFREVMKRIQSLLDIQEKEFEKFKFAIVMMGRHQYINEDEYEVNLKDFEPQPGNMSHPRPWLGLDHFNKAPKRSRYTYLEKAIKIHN
Poly [ADP-ribose] polymerase 2, sequence (Q9UGN5 whole entry): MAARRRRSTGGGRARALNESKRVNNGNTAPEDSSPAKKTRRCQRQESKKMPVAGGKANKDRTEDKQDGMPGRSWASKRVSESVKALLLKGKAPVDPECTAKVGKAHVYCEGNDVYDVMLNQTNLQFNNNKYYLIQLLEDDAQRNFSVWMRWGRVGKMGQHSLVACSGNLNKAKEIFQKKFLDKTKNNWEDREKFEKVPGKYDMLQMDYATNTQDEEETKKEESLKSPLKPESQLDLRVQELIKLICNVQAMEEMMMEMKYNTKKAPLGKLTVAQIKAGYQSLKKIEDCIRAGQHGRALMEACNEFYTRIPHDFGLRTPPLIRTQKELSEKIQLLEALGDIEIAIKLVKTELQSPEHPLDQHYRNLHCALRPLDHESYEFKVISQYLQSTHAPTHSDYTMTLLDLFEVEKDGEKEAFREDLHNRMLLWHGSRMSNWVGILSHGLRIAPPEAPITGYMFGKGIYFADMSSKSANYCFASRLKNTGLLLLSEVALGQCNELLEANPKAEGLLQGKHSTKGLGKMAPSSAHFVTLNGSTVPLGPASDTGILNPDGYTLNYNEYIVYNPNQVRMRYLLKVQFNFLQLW

Ki (Cathepsin S): 2.1 nM
SMILES: CC(F)(F)C(=O)N[C@@H](CC1(F)CCCC1)C(=O)NC1(C(=O)C(N)=O)CCC1

IC50 (Dipeptidyl peptidase 1): < 0.43 nM
SMILES: CC[C@@H](/C=C/C(=O)N1CCc2ccccc21)NC(=O)C1(N)CCOCC1

IC50 [1]: 13.4 nM
SMILES: Cc1cc(Cl)cc(-c2c3sc(CN4C(=O)C5C(C4=O)C5(C)C)cc3nn2C)c1OC1CCNCC1 (configuration not stated)

Kd [2]: 80 nM
Kd [3]: 110 nM
SMILES: C#CCNC(=O)[C@H](CO)NC(=O)[C@H](CCCCN(CC)CC)NC(=O)[C@@H](NC(=O)[C@@H](NC(=O)[C@H](Cc1ccc(O)c(Cl)c1)NC(=O)c1cc(Cl)cc(Cl)c1)C1CCCC1)[C@@H](C)CC ({Benzoyl(3,5-Cl2)}-[Tyr(3-Cl)][Gly(cPent)]I[Lys(Et2)]S-{NH(propargyl)})

IC50 [4]: 0.074 nM
SMILES: CCn1c(=S)[nH]c2cc3c(NCc4ccccc4N4CCC(CO)CC4)ncnc3cc21

Ki (Menin): 0.104 nM
SMILES: CC(C)N(C(=O)c1cc(F)ccc1Oc1cncnc1N1CC2(CCN(C[C@H]3CC[C@H](NS(C)(=O)=O)CC3)CC2)C1)C(C)C

IC50 [5]: 1.4 nM
IC50 [6]: 1 nM
SMILES: O=C(c1cc(Cc2n[nH]c(=O)c3ccccc23)ccc1F)N1CC(CNC2CC2)C1

Ki [7]: 0.2 nM
IC50 [8]: ~60 nM
IC50 [9]: ~30 nM
SMILES: CC[C@H](C)[C@H](NC(=O)[C@H](Cc1ccc(O)cc1)NC(=O)[C@@H](NC(=O)[C@H](CO)NC(=O)[C@H](CO)NC(=O)[C@H](CCSC)NC(=O)[C@@H]1CCCN1C(=O)[C@H](CC(=O)O)NC(C)=O)[C@@H](C)O)C(=O)N[C@@H](CCC(=O)O)C(=O)N[C@@H](CCC(=O)O)C(=O)N[C@@H](CC(C)C)C(=O)NCC(=O)N[C@@H](CCCCN)C(=O)N[C@@H](CCCNC(=N)N)C(=O)N[C@@H](CCC(=O)O)C(=O)N[C@H](C(=O)N[C@H](C(=O)N[C@H](C(=O)N1CCC[C@H]1C(=O)N1CCC[C@H]1C(=O)N[C@@H](CCCCN)C(=O)N[C@@H](Cc1ccc(O)cc1)C(=O)N[C@@H](CCCNC(=N)N)C(=O)N[C@@H](CCC(=O)O)C(=O)N[C@@H](CC(C)C)C(=O)N[C@@H](CC(C)C)C(=O)N[C@@H](C)C(N)=O)[C@@H](C)CC)[C@@H](C)O)C(C)C (Ac-DPMSSTYIEELGKREVTIPPKYRELLA-NH2)

IC50 (Caspase-2): ~80 nM
SMILES: COC(=O)CC(NC(=O)C(C)NC(=O)C(NC(=O)C(CC(=O)OC)NC(=O)C(NC(=O)OCc1ccccc1)C(C)C)C(C)C)C(=O)CF (configuration not stated) (Cbz-VD(OMe)VAD(OMe)-CH2F; configuration not given here)

SMILES: COc1ccc(-c2csc(N(C)C(=O)[C@@H]3CCCN3C#N)n2)nc1C#N
IC50 [10]: < 100 nM

Kd [11]: < 0.02 nM
IC50 [12]: 2.2 nM
SMILES: COc1cc(O)cc(CN2CCc3c(cc(Cn4ccn(C)c4=N)cc3-c3ccc(F)cc3C)C2=O)c1

IC50 [13]: < 50 nM
SMILES: CC(C)c1c(F)cccc1-c1ncc2[nH]c(=O)n(Cc3ccc(-c4nc(C(F)(F)F)cn4C)cc3)c2n1
